Data from ChEMBL document CHEMBL1201862, “PubChem BioAssay data set” (2004).
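Cultured in 96-well plates, cells were exposed to test compound for 48 hours across five concentrations. GI50: concentration for 50% inhibition of growth.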 The source made the active and inactive calls. No stated cut-off is given here; in the data, active = GI50 up to about 1.1 µM and inactive = higher.

Columns and labels:
Test in all cases: growth of human tumour cells (NCI), 48 h
[1] = tested on: OVCAR-4
[2] = tested on: PC-3
[3] = tested on: U-251
[4] = tested on: CCRF-CEM
[5] = tested on: K562
[6] = tested on: SNB-75
[7] = tested on: HCT-116
[8] = tested on: HOP-62
[9] = tested on: RPMI-8226
[10] = tested on: OVCAR-5
[11] = tested on: TK-10
[12] = tested on: MDA-MB-435
[13] = tested on: SF-268
[14] = tested on: NCI-H23
[15] = tested on: SK-MEL-5
[16] = tested on: KM12
[17] = tested on: MOLT-4
[18] = tested on: HCC 2998
[19] = tested on: OVCAR-3
[20] = tested on: MDA-MB-231

Structure (SMILES) | GI50 [1] | GI50 [2] | GI50 [3] | GI50 [4] | GI50 [5] | GI50 [6] | GI50 [7] | GI50 [8] | GI50 [9] | GI50 [10] | GI50 [11] | GI50 [12] | GI50 [13] | GI50 [14] | GI50 [15] | GI50 [16] | GI50 [17] | GI50 [18] | GI50 [19] | GI50 [20]
CC1=NC(C)(C)N(O)C1(C)C | > 100 µM (inactive) | > 100 µM (inactive) | > 100 µM (inactive) | > 100 µM (inactive) | > 100 µM (inactive) | > 100 µM (inactive) | > 100 µM (inactive) | > 100 µM (inactive) | > 100 µM (inactive) | > 100 µM (inactive) | > 100 µM (inactive) | > 100 µM (inactive) | > 100 µM (inactive) | > 100 µM (inactive) | > 100 µM (inactive) | > 100 µM (inactive) | > 100 µM (inactive) | > 100 µM (inactive) | > 100 µM (inactive) | > 100 µM (inactive)
COc1nc(C(Cl)(Cl)Cl)c(Cl)c(OC)c1Cl [PENCLOMEDINE] | 25.7 µM (inactive) | 39.6 µM (inactive) | 36.1 µM (inactive) | 32.5 µM (inactive) | 26.4 µM (inactive) | 7.76 µM (inactive) | 41.9 µM (inactive) | 12.1 µM (inactive) | 24.1 µM (inactive) | 42.9 µM (inactive) | 52.6 µM (inactive) | 42.5 µM (inactive) | 36.1 µM (inactive) | 42.2 µM (inactive) | 22.5 µM (inactive) | 33.7 µM (inactive) | 19.4 µM (inactive) | 46.1 µM (inactive) | 38.8 µM (inactive) | 38.3 µM (inactive)
COC(=O)C1=C(C)NC(C)=C([N+](=O)[O-])C1c1cccc(NO)c1 (stereo not given) | 6.04 µM (inactive) | 2.94 µM (inactive) | 5.22 µM (inactive) | 2.34 µM (inactive) | 2.72 µM (inactive) | 6.89 µM (inactive) | 2.37 µM (inactive) | 9.44 µM (inactive) | 2.51 µM (inactive) | 14.7 µM (inactive) | 5.12 µM (inactive) | 1.98 µM (inactive) | 6.01 µM (inactive) | 4.94 µM (inactive) | 2.72 µM (inactive) | 2.54 µM (inactive) | 3.46 µM (inactive) | 4.53 µM (inactive) | 3.9 µM (inactive) | 3.64 µM (inactive)
CN(C)CC1CCC/C(=C\c2ccc(OC(=O)c3ccc(Cl)cc3)cc2)C1=O (stereo not given) | 2.8 µM (inactive) | 6.04 µM (inactive) | 1.5 µM (inactive) | 0.33 µM (active) | 0.912 µM (active) | 4.12 µM (inactive) | 0.832 µM (active) | 3.99 µM (inactive) | 0.465 µM (active) | 2.25 µM (inactive) | 1.95 µM (inactive) | 1.95 µM (inactive) | 4.26 µM (inactive) | 1.69 µM (inactive) | 3.69 µM (inactive) | 1.57 µM (inactive) | 0.661 µM (active) | 9.95 µM (inactive) | 1.6 µM (inactive) | 2.45 µM (inactive)
O=C1CC(=O)NC(NN2C(=O)CSC2c2ccccc2)=N1 (stereo not given) | > 100 µM (inactive) | > 100 µM (inactive) | > 100 µM (inactive) | > 100 µM (inactive) | > 100 µM (inactive) | 30.9 µM (inactive) | > 100 µM (inactive) | > 100 µM (inactive) | > 100 µM (inactive) | > 100 µM (inactive) | > 100 µM (inactive) | > 100 µM (inactive) | > 100 µM (inactive) | > 100 µM (inactive) | > 100 µM (inactive) | > 100 µM (inactive) | > 100 µM (inactive) | > 100 µM (inactive) | > 100 µM (inactive) | > 100 µM (inactive)
